Where two headings read alike, the source gives them in different places.
How the values were obtained:
[1] = target: aryl hydrocarbon receptor (AhR) (Homo sapiens, UniProt P35869); assay: Yeast AhR-signaling assay; format: cell-based
HepG2 cells = assay: Alamar blue viability assay in HepG2 cells; format: cell-based, human
P450 1A2 in HepG2 cells = target: T1, P450 1A2 in HepG2 cells (Homo sapiens, UniProt P05177); assay: MROD assay in HepG2 cells
T1 sequence (P05177 2-516): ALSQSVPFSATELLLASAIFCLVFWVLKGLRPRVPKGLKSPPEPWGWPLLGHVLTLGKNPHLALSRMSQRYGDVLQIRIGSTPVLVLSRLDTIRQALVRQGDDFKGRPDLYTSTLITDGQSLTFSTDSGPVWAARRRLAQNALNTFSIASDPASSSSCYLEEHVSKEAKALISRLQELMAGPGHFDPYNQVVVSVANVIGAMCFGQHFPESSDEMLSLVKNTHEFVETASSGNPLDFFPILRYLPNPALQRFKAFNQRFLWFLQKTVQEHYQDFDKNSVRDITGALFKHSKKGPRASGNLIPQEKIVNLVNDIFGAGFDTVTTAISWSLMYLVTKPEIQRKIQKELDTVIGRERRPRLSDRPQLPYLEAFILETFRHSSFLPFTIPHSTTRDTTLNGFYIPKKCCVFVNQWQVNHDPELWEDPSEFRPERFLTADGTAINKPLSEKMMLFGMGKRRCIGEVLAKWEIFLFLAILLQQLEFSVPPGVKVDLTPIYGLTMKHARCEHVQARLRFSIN

P450 1A2 [2] = target: T2, P450 1A2 (Homo sapiens, UniProt P05177); assay: Time-dependent inhibition of P450 1A2; details: for KI (time-dependent inhibition of P450 1A2): Kitz-Wilson plot
T2 sequence (P05177 1-516): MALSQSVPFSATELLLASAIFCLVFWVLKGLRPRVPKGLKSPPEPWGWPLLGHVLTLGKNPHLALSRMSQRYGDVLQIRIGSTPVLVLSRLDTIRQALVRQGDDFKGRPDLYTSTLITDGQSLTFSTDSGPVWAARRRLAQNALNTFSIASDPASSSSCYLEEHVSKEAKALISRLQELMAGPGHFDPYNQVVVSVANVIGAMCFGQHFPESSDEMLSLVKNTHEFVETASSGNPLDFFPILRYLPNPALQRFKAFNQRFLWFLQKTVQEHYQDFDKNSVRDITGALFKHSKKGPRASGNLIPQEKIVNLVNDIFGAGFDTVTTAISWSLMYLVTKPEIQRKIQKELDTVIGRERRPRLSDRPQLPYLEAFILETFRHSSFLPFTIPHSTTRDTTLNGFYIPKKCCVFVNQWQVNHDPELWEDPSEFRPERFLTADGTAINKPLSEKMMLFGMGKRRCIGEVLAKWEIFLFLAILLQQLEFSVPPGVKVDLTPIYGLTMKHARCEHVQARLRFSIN

CYP1A2 = target: T3, CYP1A2 (Homo sapiens, UniProt P05177); assay: NADPH-dependency assay, P450 1A2; details: human, pH 7.6, probe methoxyresorufin (MROD), 5 µM
T3 sequence (P05177 1-516): T2 sequence (P05177 1-516)

P450 1A2 [3] = target: T2, P450 1A2; assay: NADPH-dependency assay, P450 1A2; details: 10 nM inhibitor, without NADPH preincubation
P450 1A1 = target: T4, P450 1A1 (Homo sapiens, UniProt P04798); assay: NADPH-dependency assay, P450 1A1; details: 10 nM (0.01 μM) inhibitor, with or without 5 min NADPH preincubation
T4 sequence (P04798 1-512): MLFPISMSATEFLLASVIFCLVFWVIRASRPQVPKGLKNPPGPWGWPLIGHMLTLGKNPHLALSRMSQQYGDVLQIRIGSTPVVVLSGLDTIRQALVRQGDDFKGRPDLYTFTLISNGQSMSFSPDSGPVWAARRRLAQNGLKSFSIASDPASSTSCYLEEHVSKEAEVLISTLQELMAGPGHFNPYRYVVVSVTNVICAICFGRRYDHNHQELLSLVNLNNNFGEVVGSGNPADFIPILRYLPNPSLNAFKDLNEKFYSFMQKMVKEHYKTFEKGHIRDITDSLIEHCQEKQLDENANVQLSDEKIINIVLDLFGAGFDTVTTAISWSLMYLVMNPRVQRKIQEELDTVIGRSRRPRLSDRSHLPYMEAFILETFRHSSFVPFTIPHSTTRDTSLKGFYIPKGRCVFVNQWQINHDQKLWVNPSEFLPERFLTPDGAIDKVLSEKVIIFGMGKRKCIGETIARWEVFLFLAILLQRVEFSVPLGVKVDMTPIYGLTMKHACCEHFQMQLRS

P450 1B1 = target: T5, P450 1B1 (Homo sapiens, UniProt Q16678); assay: NADPH-dependency assay, P450 1B1; details: 10 nM (0.01 μM) inhibitor, with or without 5 min NADPH preincubation
T5 sequence (Q16678 1-543): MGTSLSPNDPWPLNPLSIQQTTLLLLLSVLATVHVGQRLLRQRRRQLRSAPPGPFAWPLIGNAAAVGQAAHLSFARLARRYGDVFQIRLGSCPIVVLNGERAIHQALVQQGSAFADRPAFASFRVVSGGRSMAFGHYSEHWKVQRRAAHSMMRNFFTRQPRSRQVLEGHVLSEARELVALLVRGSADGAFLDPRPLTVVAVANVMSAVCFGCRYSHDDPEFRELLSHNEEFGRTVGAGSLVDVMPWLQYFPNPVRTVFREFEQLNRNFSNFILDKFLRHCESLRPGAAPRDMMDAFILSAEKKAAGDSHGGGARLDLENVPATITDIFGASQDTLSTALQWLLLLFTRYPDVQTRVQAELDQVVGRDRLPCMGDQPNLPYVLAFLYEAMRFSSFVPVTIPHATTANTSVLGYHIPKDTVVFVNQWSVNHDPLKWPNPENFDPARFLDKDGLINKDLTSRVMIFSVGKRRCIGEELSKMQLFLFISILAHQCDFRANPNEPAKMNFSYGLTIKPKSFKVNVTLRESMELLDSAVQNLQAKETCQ

aryl hydrocarbon receptor (AhR), sequence (P35869 11-848): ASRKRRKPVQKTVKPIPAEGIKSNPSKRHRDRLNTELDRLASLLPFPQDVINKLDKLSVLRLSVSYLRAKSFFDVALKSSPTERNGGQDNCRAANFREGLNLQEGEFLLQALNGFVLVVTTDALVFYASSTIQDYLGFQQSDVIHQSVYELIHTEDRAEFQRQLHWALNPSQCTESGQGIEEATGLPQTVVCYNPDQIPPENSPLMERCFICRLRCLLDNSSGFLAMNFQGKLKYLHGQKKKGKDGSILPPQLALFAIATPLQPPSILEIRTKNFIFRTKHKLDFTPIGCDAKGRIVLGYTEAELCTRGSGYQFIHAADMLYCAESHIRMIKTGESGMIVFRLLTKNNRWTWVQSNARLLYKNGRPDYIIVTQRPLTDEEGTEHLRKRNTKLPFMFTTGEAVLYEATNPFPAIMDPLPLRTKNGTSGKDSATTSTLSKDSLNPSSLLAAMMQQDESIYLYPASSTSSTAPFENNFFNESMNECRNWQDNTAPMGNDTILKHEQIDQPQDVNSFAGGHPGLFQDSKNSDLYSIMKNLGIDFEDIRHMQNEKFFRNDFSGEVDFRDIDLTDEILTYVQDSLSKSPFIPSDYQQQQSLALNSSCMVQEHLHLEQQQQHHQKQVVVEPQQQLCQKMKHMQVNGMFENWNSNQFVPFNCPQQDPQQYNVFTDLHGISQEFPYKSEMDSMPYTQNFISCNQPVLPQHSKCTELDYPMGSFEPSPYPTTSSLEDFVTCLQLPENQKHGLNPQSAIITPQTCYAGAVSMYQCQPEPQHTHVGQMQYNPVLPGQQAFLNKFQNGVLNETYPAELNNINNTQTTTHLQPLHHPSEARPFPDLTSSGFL
aryl hydrocarbon receptor (AhR), sequence (P27540 whole entry partner): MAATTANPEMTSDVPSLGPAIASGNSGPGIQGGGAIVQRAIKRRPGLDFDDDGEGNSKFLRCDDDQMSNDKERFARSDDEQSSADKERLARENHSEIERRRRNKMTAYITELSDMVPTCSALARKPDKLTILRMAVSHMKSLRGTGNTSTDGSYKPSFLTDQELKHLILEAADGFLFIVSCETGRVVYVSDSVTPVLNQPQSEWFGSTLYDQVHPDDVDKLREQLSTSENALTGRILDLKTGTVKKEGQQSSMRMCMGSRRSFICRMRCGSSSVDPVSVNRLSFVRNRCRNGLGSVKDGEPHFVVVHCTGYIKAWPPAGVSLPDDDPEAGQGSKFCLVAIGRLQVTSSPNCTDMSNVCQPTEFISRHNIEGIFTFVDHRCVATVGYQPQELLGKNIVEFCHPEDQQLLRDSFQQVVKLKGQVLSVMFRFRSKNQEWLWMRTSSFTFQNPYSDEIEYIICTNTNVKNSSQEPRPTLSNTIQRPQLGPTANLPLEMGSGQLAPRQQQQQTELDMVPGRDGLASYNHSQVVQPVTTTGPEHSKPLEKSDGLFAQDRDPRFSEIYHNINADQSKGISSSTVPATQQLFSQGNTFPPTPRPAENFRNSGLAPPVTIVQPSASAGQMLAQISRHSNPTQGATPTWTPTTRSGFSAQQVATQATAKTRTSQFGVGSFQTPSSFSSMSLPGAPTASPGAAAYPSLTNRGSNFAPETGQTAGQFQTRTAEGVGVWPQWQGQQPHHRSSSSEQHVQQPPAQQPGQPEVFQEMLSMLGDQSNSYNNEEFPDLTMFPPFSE

SMILES: O=c1cc(C(F)(F)F)c2ccc3c(c2o1)C=CCO3 [Compound 20, 4-(Trifluoromethyl)pyrano[2,3-f]chromen-2(8H)-one]
- influence on βNF-induced AhR activation ([1]; 10^−4 to 10^−10 M compound combined with 10^−8 M βNF): do not influence
- concentration at which AhR is not activated ([1]; yeast AhR activation assays): lower than 1 μM
- concentrations at which AhR-signaling pathway is not activated ([1]; yeast strain MYA-3637): lower than 10^−6 M
- concentration not toxic to HepG2 cells (HepG2 cells): ≤ 10^−5 M
- concentrations decreasing MROD activity in HepG2 cells (P450 1A2 in HepG2 cells; 24 h incubation, read at 10, 30, 60 min): higher than 10^−6 M
- concentrations decreasing MROD activity in HepG2 cells (P450 1A2 in HepG2 cells; in-cell P450 1A2 inhibition assays): higher than 1 μM
- mode of inhibition of P450 1A2 (time dependence) (P450 1A2 [2]): competitive inhibitor

SMILES: Cc1cc2c(ccc3c(=O)cc(-c4ccccc4)oc32)o1 [Compound 3, 8-Methyl-2-phenyl-4H-furo[2,3-h]chromen-4-one]
- concentrations showing considerable activation of AhR ([1]; yeast strain MYA-3637): higher than 10^−7 M
- inhibition at 6 min, 0.01 µM (CYP1A2): 90%
- effect on P450 1A2 activity without NADPH preincubation (P450 1A2 [3]): significant inhibition
- effect on P450 1A1 activity (P450 1A1): does not influence
- effect on P450 1B1 activity (P450 1B1): does not influence
- mode of inhibition of P450 1A2 (time dependence) (P450 1A2 [2]): time-dependent inhibitor
- KI (time-dependent inhibition of P450 1A2) (P450 1A2 [2]): 440 nM
- mode of inhibition of P450 1A2 (time dependence) (P450 1A2 [2]; listed as 7,8-furanoflavone): time-dependently inhibits
- mode of inhibition of P450 1A2 (time dependence) (P450 1A2 [2]; listed as 78FF): time- and NADPH-dependent inhibition

SMILES: Cc1cc2c(cc(O)c3c(=O)cc(-c4ccccc4)oc32)o1 [Compound 8, 5-Hydroxy-8-methyl-2-phenyl-4H-furo[2,3-h]chromen-4-one]
- inhibition at 6 min, 0.01 µM (CYP1A2): 90%
- effect on P450 1A1 activity (P450 1A1): does not influence
- effect on P450 1B1 activity (P450 1B1): does not influence
- mode of inhibition of P450 1A2 (time dependence) (P450 1A2 [2]): time- and NADPH-dependent inhibition
- KI (time-dependent inhibition of P450 1A2) (P450 1A2 [2]): 120 nM

SMILES: O=c1cc(-c2ccccc2)oc2ccc3ccccc3c12 [βNF, β-naphthoflavone, reference compound]
- activation of AhR-signaling pathway (Abs405/Abs600) ([1]; 10^−8 M, positive control, compared with blank control (1% DMSO)): great activation
- effect on MROD activity in HepG2 cells (P450 1A2 in HepG2 cells; 10^−5 M, 24 h incubation, read at 10, 30, 60 min): increased

Reference: paper PMC4826332 (Journal of medicinal chemistry, 2015)
